The source of these data is patent publication US20260102340A1, “Therapeutic Formulation” (1000739373 Ontario Ltd., priority 2022, published 2026).

A short description of data set [1]: Visual solubility of formulations packaged in glass bottles. The format is physicochemical. Conditions: 100 μg/50 μl in 12% w/w ethanol and HFA 134a, T=5° C. and T=20° C.
Data set [2] is described as follows: Stability of CBD formulation in HFA 134a (residual). The format is physicochemical. Conditions: for Residual (% of 5° C. data): Valve Up. On the procedure:
The stability of a cannabidiol (CBD) formulation in HFA 134a was evaluated over a 6-month period.
The formulation consisted of 3.57% (w/w) CBD, 15% (w/w) ethanol, and HFA 134a. The formulation was packaged in Presspart™ Plasma 14 mL canisters with metering valves 1908 (Aptar™). The canisters were stored in the valve-up orientation for 6 months at 5° C., 25° C., or 40° C. The residual formulation was measured at 1 month and 6 months.

Consider `CCCC1O[C@@H]2C[C@H]3[C@@H]4CCC5=CC(=O)C=C[C@]5(C)[C@H]4[C@@H](O)C[C@]3(C)[C@]2(C(=O)CO)O1` (stereo partly shown) [Budesonide], for which the “Visual solubility in glass bottles” value in data set [1] is “confirmed visually”.
For `C=C(C)[C@@H]1CCC(C)=C[C@H]1c1c(O)cc(CCCCC)cc1O` [CBD, cannabidiol], in data set [2] (5° C., 25° C. and 40° C.), the “Stability of CBD-HFA formulations” value is “stable”. Further, the “Residual (% of 5° C. data)” value in data set [2] (Batch OZ210527/DAL/G1, 1 month (n = 3), 25° C.) was 100.3 % of 5 °C data; in data set [2] (Batch OZ210527/DAL/G1, 1 month (n = 3), 40° C.) it was 98.5 % of 5 °C data; in data set [2] (Batch OZ210527/DAL/G1, 3.57% CBD, 15% ethanol, HFA 134a, 1 month (n = 3), 5° C.) it was 100.00 % of 5 °C data; in data set [2] (Batch OZ210527/DAL/G1, 6 month (n = 4), 25° C.), 93.3 % of 5 °C data; in data set [2] (Batch OZ210527/DAL/H1, 1 month (n = 3), 25° C.), 100.2 % of 5 °C data; in data set [2] (Batch OZ210527/DAL/H1, 1 month (n = 3), 40° C.), 98.1 % of 5 °C data. Besides, the “Residual (% of 5° C. data)” value in data set [2] (Batch OZ210527/DAL/H1, 3.57% CBD, 15% ethanol, HFA 134a, 1 month (n = 3), 5° C.) is 100.0 % of 5 °C data; in data set [2] (Batch OZ210527/DAL/H1, 6 month (n = 4), 25° C.) it was 93.5 % of 5 °C data.
